Assay results: US4354039A, “Chlorocitric acids” (Hoffmann-La Roche Inc., priority 1981, dated 1982)
Where two headings read alike, the source gives them in different places.

Assays:
[1] = Effect of stereoisomers on food consumption of meal-fed rats (Example 14); assay type: in vivo, Charles River female rats
Procedure: Animals were fasted 48 hr, then meal-fed the 70% glucose diet described by A. C. […] Following 5 to 12 days alimentation on the meal-feeding regimen, rats were dosed with the appropriate compounds orally by intubation 1/2 hr before the 3 hr meal. Food cups were weighed immediately after the meal. The control group consisted of 5 to 10 rats, while the experimental group consisted of 4 to 6 rats.

[2] = Effect on stomach emptying, [14C] glucose load (Example 25); assay type: in vivo, Rats; conditions: 0.33 mmoles/kg oral, 60 min after [14C] glucose load
Procedure: Rats were trained to consume a 3 hr 70% glucose meal from 8 a.m. to 11 a.m. daily. On the experimental day, compounds were administered orally by intubation 30 min before a [^14 C] glucose load was given also by intubation. […] Sixty minutes later the rats were killed by decapitation; blood and stomachs were collected on ice.
Data are expressed as follows: dpm×10^3 per ml of serum and dpm×10^3 per stomach.

isolated rat hepatocytes = test: Fatty acid and cholesterol synthesis and CO2 production in isolated hepatocytes (Example 23); assay type: cell-based, Female Charles River rats; conditions: 2 mM, 60 min, 37° C.; for activity at 2000 µM: Rattus norvegicus, Hepatocyte, 1 h
Procedure: Female Charles River rats were fasted 48 hr, then meal-fed a 1% corn oil, 70% glucose diet for 7 to 14 days from 8 to 11 a.m. The isolated rat hepatocytes were prepared by perfusing the liver in situ. The hepatocytes were incubated in an oscillating water bath at 37° C. for 60 min. […] All incubations were done in triplicate and all experiments were repeated at least twice. […] The contents of the center well were transferred to scintillation counting fluid and ^14 CO2 content was determined. […] The media was then acidified, extracted with hexane, and the extract counted (to determine the rate of lipogenesis). The conversion of ^3 H2 O and [^14 C]alanine into fatty acids or sterols was determined in a PDS/3, Mark II liquid scintillation counting system.

[3] = Anorectic activities of stereoisomers, 3-day food consumption and body weight gain (Example 16); assay type: in vivo, Charles River female rats; conditions: 1.32 mmoles/kg oral, 3 days
Procedure: Charles River female rats (Charles River Breeding Laboratories, Wilmington, Mass.), weighing 196 to 210 g, were individually housed in wire-bottomed cages in a temperature-regulated (22° C.) light-controlled room (12 hr light, 6 a.m. to 6 p.m. and 12 hr dark, 6 p.m. to 6 a.m.). Animals were fasted 48 hr, then meal-fed a 70% glucose diet from 8 to 11 a.m. Following 5 to 12 days alimentation on the meal-feeding regimen, rats were dosed with the appropriate compounds orally by intubation 1/2 hr before the 3 hr meal for 3 days. The total food consumption and body weight gained during the 3 day period were determined. The control group consisted of 16 rats, while the experimental group consists of 8 rats.

[4] = Food intake in dogs, pyramiding oral doses (Examples 26 and 27); assay type: in vivo, beagle dogs
Procedure: Twelve beagle dogs of both sexes weighing 7.6-12.2 kg were used for this test. The test compounds were contained in gelatin capsules for oral administration to two dogs of each sex. The animals were weighed and food consumption calculated daily excluding weekends throughout the test period. Each animal received 800 grams of diet daily consisting of 400 grams of Wayne pellet dog food mixed with 400 ml distilled water. The animals received pyramiding oral doses of the test compound over the three week period. On Monday and Tuesday of the first week the animals were weighed and food consumption was recorded (control). […] Doses of 30, 100 and 300 mg/kg were administered on Monday, Wednesday and Friday respectively during the second week. A final dose of 1000 mg/kg was administered on Monday of the third week.
Food intake was determined by the procedure at pyramiding doses described in EXAMPLE 26.

[5] = test day 8, dose 100 mg/kg oral
[6] = test day 10, dose 300 mg/kg oral
[7] = test day 13, dose 1000 mg/kg oral

## O=C(O)C[C@](O)(C(=O)O)[C@H](Cl)C(=O)O [(+)-threo-Chlorocitric acid]
[1]; 0.66 mmoles/kg oral
  Food Consumption, % of control: 83 % of control
[1]; 2.63 mmoles/kg oral
  Food Consumption, % of control: 38 % of control
[2]
  Serum, % of control: 60 % of control
  Stomach Contents, % of control: 220 % of control
Isolated rat hepatocytes; 2000 µM
  CO2 Production, [14C]alanine converted: 100 % of control
  Cholesterol Synthesis, [14C]alanine converted: 88 % of control
  Fatty Acid Synthesis, 3H2O converted: 94 % of control
  Fatty Acid Synthesis, [14C]alanine converted: 97 % of control
Isolated rat hepatocytes; read-out: CO2 Production, [14C]alanine converted
  activity at 2000 µM: 114%
Isolated rat hepatocytes; read-out: Cholesterol Synthesis, [14C]alanine converted
  activity at 2000 µM: 69%
Isolated rat hepatocytes; read-out: Fatty Acid Synthesis, 3H2O converted
  activity at 2000 µM: 93%
Isolated rat hepatocytes; read-out: Fatty Acid Synthesis, [14C]alanine converted
  activity at 2000 µM: 102%
[3]
  3-Day Body Weight Gain, % of initial body weight: -1.7 % of initial body weight
  3-Day Food Consumption, % of control: 93 % of control
[4]; test day 1, dose 3 mg/kg oral
  Food Consumption: 430 ± 109 g
  Food Consumption, % of control: 70 % of control
[4]; test day 2, no dose
  Food Consumption: 502 ± 109 g
  Food Consumption, % of control: 82 % of control
[4]; test day 3, dose 10 mg/kg oral
  Food Consumption: 367 ± 114 g
  Food Consumption, % of control: 60 % of control
[4]; test day 6, dose 30 mg/kg oral
  Food Consumption: 629 ± 64 g
  Food Consumption, % of control: 103 % of control
[4]; test day 7, no dose
  Food Consumption: 397 ± 87 g
  Food Consumption, % of control: 65 % of control
[4]; [5]
  Food Consumption: 477 ± 75 g
  Food Consumption, % of control: 78 % of control
[4]; test day 9, no dose
  Food Consumption: 585 ± 69 g
  Food Consumption, % of control: 96 % of control
[4]; [6]
  Food Consumption: 436 ± 60 g
  Food Consumption, % of control: 71 % of control
[4]; [7]
  Food Consumption: 433 ± 125 g
  Food Consumption, % of control: 71 % of control
[4]; test day 14, no dose
  Food Consumption: 518 ± 19 g
  Food Consumption, % of control: 85 % of control
[4]; test day 15, no dose
  Food Consumption: 622 ± 69 g
  Food Consumption, % of control: 102 % of control
[4]; test day 16, no dose
  Food Consumption: 564 ± 106 g
  Food Consumption, % of control: 92 % of control
[4]; test day 17, no dose
  Food Consumption: 597 ± 36 g
  Food Consumption, % of control: 98 % of control
[4]; test day 21, no dose
  Food Consumption: 578 ± 79 g
  Food Consumption, % of control: 95 % of control
[4]; test day 22, no dose
  Food Consumption: 668 ± 57 g
  Food Consumption, % of control: 110 % of control
[4]; test day 23, no dose
  Food Consumption: 516 ± 66 g
  Food Consumption, % of control: 85 % of control
[4]; test day 24, no dose
  Food Consumption: 539 ± 39 g
  Food Consumption, % of control: 88 % of control
[4]; test day 27, no dose
  Food Consumption: 479 ± 92 g
  Food Consumption, % of control: 79 % of control
[4]; test day 28, no dose
  Food Consumption: 710 ± 91 g
  Food Consumption, % of control: 116 % of control
